Where “and” joins values, the source holds several entries; their conditions need not be identical. Equal values may be shown once.
Experiments:
[1] = tested on: A/Puerto Rico/8/1934 (H1N1) influenza A virus; assay type: in vivo, BALB/c mice
[2] = tested on: MDA-MB-231-D3H2LN-Luc cells; experiment: Spontaneous/orthotopic breast cancer model, mammary fat pad injection; assay type: in vivo; settings: for First Appearance of Mets, Mean ± S.E.M.: lymph node metastases; for Day of Sacrifice Mean ± S.E.M.: primary tumor reaching 15 mm
Source text: In order to further assess the efficacy of TP20 for use as an anti-cancer, affecting primary tumor growth, and/or as an anti-metastatic agent, a spontaneous/orthotopic cancer model was employed by injection of the triple negative MDA-MB-231 breast cancer cell line (ER, PR, Her2 negative) into the mammary fat pad of immune compromised Balb-C nude mice. More specifically, in order to increase the growth rate of the primary tumor and increase the incidence of metastasis, a more aggressive variant of the MDA-MB-231 cell line, namely MDA-MB-231-D3H2LN-Luc (Jenkins et al., (2005), Breast Cancer Res, 7, 444-454), was used in the studies described below. Furthermore, the latter MDA-MB-231-D3H2LN-Luc cell line stably over-expresses the firefly luciferase gene (Luc) thereby enabling monitoring and in vivo detection of both the primary tumor and of the secondary metastasis by bioluminescent imaging in addition to assessment of the growth of the primary tumor by standard caliper measurements. In total, three groups of animals were studied and the diagram below gives an overview of the study design. FIG. 7 provides a diagram of a study design.
Body weights of the BALB/c nude mice were recorded prior to initiating the study and, thereafter, 3 times per week (Monday, Wednesday & Friday) following the mammary fat pad injection up to the point of sacrifice or death of the animal, as per welfare guidelines. Animals were typically sacrificed once the primary tumor reached 15 mm or, as required, if animals needed to be culled for welfare reasons.
BALB/C-nude mice (female, 5-7 weeks old) were pre-treated 24 and 4 hr with TP20 at 0.36 mg/kg (blue line; Group 1), 1 mg/kg (red line; Group 2) or as control, vehicle (1% DMSO in PBS; black line; Group 3) prior to injecting MDA-MB-231-D3H2LN-Luc cells (50 μl, 2×106 suspended in 50% DPBS/50% Matrigel) into the mammary fat pad with a 27.5 G needle. Thereafter, mice were treated with TP20 or vehicle thrice weekly (Monday, Wednesday & Friday) until the primary tumor width reached 15 mm. Body weight was monitored 3 times per week. The data presented represents the mean (FIG. 8A; ±S.E.M.) or Percentage in Body Weight (FIG. 8B; ±S.E.M.), where weight at day −1 is 100%.
Through the duration of the study to monitor the growth of the primary (1°) tumor, for welfare and experimental reasons, caliper measurements were performed thrice weekly (i.e., Monday, Wednesday & Friday) and involved measuring the width and length of the primary tumor mass. These measurements were then used in the following formula to calculate the tumor volume (mm3): Volume of Tumor (mm3)=length×width2×0.5
BALB/C-nude mice (female, 5-7 weeks old) were pre-treated 24 and 4 hr with TP20 at 0.36 mg/kg (blue line; Group 1), 1 mg/kg (red line; Group 2) or as control, vehicle (1% DMSO; black line; Group 3) prior to injecting MDA-MB-231-D3H2LN-Luc cells (50 μl, 2×106 suspended in 50% DPBS/50% Matrigel) into the mammary fat pad with a 27.5 G needle. Thereafter, mice were treated with TP20 or vehicle thrice weekly (Monday, Wednesday & Friday) until the primary tumor diameter reached 15 mm. Primary tumor growth was monitored thrice weekly using caliper measurements where tumor volume (mm3) is calculated by the formula Volume=Length×width2×0.5. The data presented represents the mean (±S.E.M.) tumor volume (mm3) for each of the treatment groups as a function of time (days). Fine black lines represent the linear trend for each of the treatment groups.
As the 1° tumors reached 15 mm in diameter, for welfare reasons the animals were sacrificed. The day of sacrifice was analyzed using Kaplan-Meier survival analysis and subsequent Log-Rank and Wilcoxon tests to compare any differences between the treatments groups in terms of time of death. […]

human platelets = experiment: Thrombin-induced platelet aggregation of human platelets ex vivo; assay type: cell-based
Source text: The method of assessing platelet aggregation also allows evaluation of the effect of the compounds of the invention on platelet aggregation upon stimulation by other agonists, e.g., adenosine diphosphate (ADP) and thrombin.

[3] = lung, Day 4, Tamiflu 10 mg/kg, TP20 0.36 mg/kg
[4] = lung, Day 4, number of animals of 3

`COc1ccc(-c2cccc(Oc3ccc([N+](=O)[O-])cc3S(=O)(=O)NC(=O)NC(C)(C)C)c2)cc1` [TP20, N-(tert-butylcarbamoyl)-2-((4′-methoxy-[1,1′-biphenyl]-3-yl)oxy)-5-nitrobenzene-sulfonamide] was tested, and the “mean time of death post-viral challenge” value ([1]; TP20 360 μg/kg oral gavage twice daily) was 7.2 days, the “loss of body weight post-viral infection” value ([1]; Tamiflu 10 mg/kg, TP20 360 μg/kg, oral gavage twice daily) was at most 30% and the “Alveolar Acute Inflammation, number of animals with the finding” value ([1]; lung, Day 4, 3 animals) was “(0)”. The “Bronchiolar Erosion, number of animals with the finding” value ([1]; lung, Day 4, 3 animals) was “(3)”, the “Bronchiolar Exudate, number of animals with the finding” value ([1]; lung, Day 4, 3 animals) was “(3)” and the “Bronchiolar acute Inflammation, number of animals with the finding” value ([1]; lung, Day 4, 3 animals) was “(3)”. For the same compound, the “Vascular Necrosis, number of animals with the finding” value ([1]; lung, Day 4, 3 animals) was “(0)”, the “Extent of Perivascular Edema (Mean ± S.E.M.), Per Animal” value [1, 3] was 16.9 ± 1.09 (70) arbitrary units and 17.4 ± 0.98 (89) arbitrary units and 19.2 ± 1.10 (78) arbitrary units and the “Extent of Perivascular Edema (Mean ± S.E.M.), Per Treatment Group” value [1, 3] was 18.0 ± 0.59 arbitrary units. For the same compound, the “reduction in the perivascular edema compared to vehicle” value [1, 3] was “approx. 20%”, the “Bronchiolar Erosion, Mild” value [1, 4] was 3 and the “Bronchiolar Erosion, Minimal” value [1, 4] was 0. For the same compound, the “Bronchiolar Erosion, Moderate” value [1, 4] was 0, the “Bronchiolar Exudate, Mild” value [1, 4] was 1 and the “Bronchiolar Exudate, Minimal” value [1, 4] was 2. For the same compound, the “Bronchiolar Exudate, Moderate” value [1, 4] was 0, the “Bronchiolar acute Inflammation, Mild” value [1, 4] was 0 and the “Bronchiolar acute Inflammation, Minimal” value [1, 4] was 3. The “Perivascular Edema, Mild” value [1, 4] was 0, the “Perivascular Edema, Minimal” value [1, 4] was 3 and the “Perivascular Edema, number of animals with the finding” value ([1]; mouse, in vivo) was “(3)”. For the same compound, the “effect on primary tumor growth” value ([2]; 0.36 mg/kg and 1 mg/kg vs. vehicle) was “significantly decreases the primary tumor growth”, the “tolerability of repeat administration (body weight)” value ([2]; 0.36 mg/kg and 1 mg/kg, thrice weekly) was “well-tolerated” and the “First Appearance of Mets, Mean ± S.E.M.” value ([2]; Group 1, 0.36 mg/kg) was 22.5 ± 2.16 (N = 8) days. The “Day of Sacrifice Mean ± S.E.M.” value ([2]; Group 1, 0.36 mg/kg) was 38.5 ± 2.83 (N = 8) days, the “First Appearance of Mets, Mean ± S.E.M.” value ([2]; Group 2, 1 mg/kg) was 26.2 ± 3.71 (N = 9) days and the “Day of Sacrifice Mean ± S.E.M.” value ([2]; Group 2, 1 mg/kg) was 38.4 ± 3.86 (N = 7) days. The “effect on thrombin-induced platelet aggregation” value (human platelets) was “did not affect”.
